Results reported in patent publication US4578489A (priority 1982, dated 1986).
Where two headings read alike, the source gives them in different places.

Experiments:
Aspergillus niger = assay: Minimum inhibitory concentration against fungi, agar incorporation test, strain K; type: cell-based; conditions: malt extract/agar
Description: (§1) The invention is carried out using the known agar incorporation test in the following fungi:
(§2) in a malt extract/agar (Merck). Inhibition is effected by adding sufficient of each of the various compounds to give final concentrations in the agar of 2, 5, 10, 50 and 100 mg/liter. The concentrations (mg/liters) required to inhibit the growth of the fungi (starting from traces of fungi added dropwise) are illustrated in Table 3.

Endomyces geotrichum = assay: Minimum inhibitory concentration against fungi, agar incorporation test, strain Q; type: cell-based; conditions: malt extract/agar
Description: as §1, §2

Pseudomonas aeruginosa = assay: Minimum inhibitory concentration against bacteria, strain B; type: cell-based; conditions: 24 hours at 30° C.; tested at 100 and 300 mg/liter
Description: (§3) Overnight cultures, grown in Caso peptone bouillon (Merck) of the various strains of bacteria: (A) Proteus vulgaris, (B) Pseudomonas aeruginosa, (C) Enterobacter aerogenes, (D) Serratia marcencens, (E) Alcaligenes denitrificans and (F) Bacillus subtilis are each diluted in a ratio of 1/1000 in saline solution. Sufficient of the suspensions is put into Caso peptone bouillon to dilute the bacteria again in the ratio of 1/1000. Each of the compounds listed in Table 1 is then added in amounts of 100 and 300 mg/liter. After being incubated for 24 hours at 30° C. in a shaking waterbath, the turbidity of the samples is evaluated.

Artemia salina = assay: Action against Artemia salina nauplii; type: in vivo; parameters: key: 0: no change; 1: slight change; 1-2: animals are attacked; 2: animals are strongly attacked; 2-3: animals are nearly all dead; 3: animals are all dead
Description: The eggs, which are available commercially, are caused to hatch by vigorous aeration. When 2-3 days old, the nauplii are exposed to the products at various concentrations (concentrations tested: 2.5; 1; 0.5 and 0.25 mg/liter) in synthetic seawater, and are observed over a prolonged period of time.

Bacillus subtilis = assay: Minimum inhibitory concentration against bacteria, strain F; type: cell-based; conditions: 24 hours at 30° C.; tested at 100 and 300 mg/liter
Description: as §3

Chlorella vulgaris = assay: Action against algae: Chlorella vulgaris; type: cell-based; parameters: key: --: no growth on the agar, 3 ppm have destroyed the algae in 6 hours; conditions: 3 mg/liter; for Growth on the agar (algae-destroying action): 6 hours exposure, 14 days incubation; for Growth in the medium (growth inhibition): 14 days
Description: Cultures of Chlorella vulgaris which had been grown for 14 days in algae nutrient media are diluted in the ratio 1/200 in the algae nutrient medium. Each of the compounds listed in Table 1 is then added in such an amount as to give a final concentration of 3 mg/liter. After incubating for 6 hours, 10 μl of each culture are withdrawn and added dropwise to algae/agar in order to determine the destructive action. After the cultures have incubated for 14 days under illumination (14 hours of light and 10 hours of darkness, alternately), the growth in the algae medium (determination of growth inhibition) and on the algae/agar (determination of algae-destroying action) is assessed visually.

Proteus vulgaris = assay: Minimum inhibitory concentration against bacteria, strain A; type: cell-based; conditions: 24 hours at 30° C.; tested at 100 and 300 mg/liter
Description: as §3

[1] = tested on: Cladosporium cladosporioides; assay: Minimum inhibitory concentration against fungi, agar incorporation test, strain O; type: cell-based; conditions: malt extract/agar
Description: as §1
(O) Cladosporium cladosporioides
as §2

[2] = tested on: Alcaligenes denitrificans; assay: Minimum inhibitory concentration against bacteria, strain E; type: cell-based; conditions: 24 hours at 30° C.; tested at 100 and 300 mg/liter
Description: as §3

Chaetomium globosum = assay: Minimum inhibitory concentration against fungi, agar incorporation test, strain S; type: cell-based; conditions: malt extract/agar
Description: as §1, §2

Enterobacter aerogenes = assay: Minimum inhibitory concentration against bacteria, strain C; type: cell-based; conditions: 24 hours at 30° C.; tested at 100 and 300 mg/liter
Description: as §3

Candida albicans = assay: Minimum inhibitory concentration against fungi, agar incorporation test, strain P; type: cell-based; conditions: malt extract/agar
Description: as §1, §2

Penicillium funiculosum = assay: Minimum inhibitory concentration against fungi, agar incorporation test, strain M; type: cell-based; conditions: malt extract/agar
Description: as §1
(M) Penicillium funiculosum
as §2

[3] = tested on: mixed culture of bacteria; type: cell-based; parameters: key: +: growth, no destruction; (+): growth less than that of control (>10 colonies), slight destruction; (-): slight growth (1-10 colonies); -: no growth, destruction
Aureobasidium pullulans = assay: Minimum inhibitory concentration against fungi, agar incorporation test, strain R; type: cell-based; conditions: malt extract/agar
Description: as §1
(R) Aureobasidium pullulans
as §2

[4] = tested on: Enteromorpha intestinalis; assay: Action against Enteromorpha intestinalis: inhibitory concentration (MIC); type: in vivo; conditions: seawater containing biocide for entire test; concentration tested 0.5 mg/liter
Description: (§4) The action against the green alga Enteromorpha, which is the most important in seawter fouling, is investigated in sterile-filtered seawater containing an Erd-Schreiber solution. This solution is composed of a nutrient extract, phosphate and nitrate. The incubation of Enteromorpha intestinalis is carried out in a light thermostat at 18° C. under an alternation of 14 hours of light and 10 hours of darkness.
For determining the inhibitory concentration (MIC), the algae are kept in seawater containing biocide for the entire duration of the test (concentration tested: 0.5 mg/liter).

Alternaria alternata = assay: Minimum inhibitory concentration against fungi, agar incorporation test, strain N; type: cell-based; conditions: malt extract/agar
Description: as §1, §2

Aspergillus phoenicis = assay: Minimum inhibitory concentration against fungi, agar incorporation test, strain L; type: cell-based; conditions: malt extract/agar
Description: as §1
(L) Aspergillus phoenicis
as §2

Serratia marcencens = assay: Minimum inhibitory concentration against bacteria, strain D; type: cell-based; conditions: 24 hours at 30° C.; tested at 100 and 300 mg/liter
Description: as §3

[5] = tested on: Enteromorpha intestinalis; assay: Action against Enteromorpha intestinalis: destruction (minimum killing concentration); type: in vivo; conditions: 4 hours in seawater, then 6-8 weeks in fresh seawater
Description: as §4
The algae which have been cultured in this way are exposed to the products under investigation for a short time (4 hours) in seawater. The minimum killing concentration (MKC) is determined by taking the algae out of the seawater containing a specific quantity of algicide, after the treatment time in the latter, washing the algae and investigating growth or mortality after incubation in fresh seawater for a further period of 6-8 weeks.
The minimum killing concentration (MKC) indicates the amount of substance required to cause such damage to the algae within a specific time that they can no longer recover in fresh seawater and die out.

[6] = 5 mg/l, culture diluted 1/1000 in Tyrode
[7] = 5 mg/l, culture diluted 1/10000 in Tyrode
[8] = 10 mg/l, culture diluted 1/1000 in Tyrode
[9] = 10 mg/l, culture diluted 1/10000 in Tyrode
[10] = 30 mg/l, culture diluted 1/1000 in Tyrode
[11] = 30 mg/l, culture diluted 1/10000 in Tyrode
[12] = 60 mg/l, culture diluted 1/1000 in Tyrode
[13] = 60 mg/l, culture diluted 1/10000 in Tyrode
[14] = 100 mg/l, culture diluted 1/1000 in Tyrode
[15] = 100 mg/l, culture diluted 1/10000 in Tyrode

SMILES: CCCCCCCCCCCCCCCC[n+]1ccccc1.CCC[CH2][Sn-]([Cl])([Cl])([CH2]CCC)[CH2]CCC [Example 7, Pyridine-Nhexadecyl / Tributyldichloro]
- MIC against fungi, strain K (Aspergillus niger): 2 mg/L
- MIC against fungi, strain Q (Endomyces geotrichum): 5 mg/L
- MIC against bacteria, strain B (Pseudomonas aeruginosa): 100 mg/L
- Action against Artemia salina (Artemia salina; 0,5 mg/l, 6 hours): 1-2
- Action against Artemia salina (Artemia salina; 0,5 mg/l, 24 hours): 2
- Action against Artemia salina (Artemia salina; 0,5 mg/l, 48 hours): 3
- Action against Artemia salina (Artemia salina; 0,25 mg/l, 6 hours): 0-1
- Action against Artemia salina (Artemia salina; 0,25 mg/l, 24 hours): 2
- Action against Artemia salina (Artemia salina; 0,25 mg/l, 48 hours): 2-3
- Action against Artemia salina (Artemia salina; 1 mg/l, 6 hours): 2
- Action against Artemia salina (Artemia salina; 1 mg/l, 24 hours): 3
- Action against Artemia salina (Artemia salina; 1 mg/l, 48 hours): 3
- Action against Artemia salina (Artemia salina; 2,5 mg/l, 6 hours): 2-3
- Action against Artemia salina (Artemia salina; 2,5 mg/l, 24 hours): 3
- Action against Artemia salina (Artemia salina; 2,5 mg/l, 48 hours): 3
- MIC against bacteria, strain F (Bacillus subtilis): 100 mg/L
- Growth on the agar (algae-destroying action) (Chlorella vulgaris): --
- Growth in the medium (growth inhibition) (Chlorella vulgaris): --
- MIC against bacteria, strain A (Proteus vulgaris): 100 mg/L
- MIC against fungi, strain O [1]: 2 mg/L
- MIC against bacteria, strain E [2]: 100 mg/L
- MIC against fungi, strain S (Chaetomium globosum): 2 mg/L
- MIC against bacteria, strain C (Enterobacter aerogenes): 100 mg/L
- MIC against fungi, strain P (Candida albicans): 5 mg/L
- MIC against fungi, strain M (Penicillium funiculosum): 10 mg/L
- Growth (destruction of a mixed culture of bacteria) [3, 6]: +
- Growth (destruction of a mixed culture of bacteria) [3, 7]: +
- Growth (destruction of a mixed culture of bacteria) [3, 8]: +
- Growth (destruction of a mixed culture of bacteria) [3, 9]: (+) (growth less than that of control (>10 colonies), slight destruction)
- Growth (destruction of a mixed culture of bacteria) [3, 10]: (+) (growth less than that of control (>10 colonies), slight destruction)
- Growth (destruction of a mixed culture of bacteria) [3, 11]: (-) (slight growth (1-10 colonies))
- Growth (destruction of a mixed culture of bacteria) [3, 12]: -
- Growth (destruction of a mixed culture of bacteria) [3, 13]: -
- Growth (destruction of a mixed culture of bacteria) [3, 14]: -
- Growth (destruction of a mixed culture of bacteria) [3, 15]: -
- MIC against fungi, strain R (Aureobasidium pullulans): 2 mg/L
- MIC [4]: 0.5 mg/L
- MIC against fungi, strain N (Alternaria alternata): 5 mg/L
- MIC against fungi, strain L (Aspergillus phoenicis): 10 mg/L
- MIC against bacteria, strain D (Serratia marcencens): 100 mg/L
- Destruction, 5 mg/liter [5]: yes

SMILES: CCCCCCCCCCCC[N+](CCO)(CCO)Cc1ccccc1.CCC[CH2][Sn-]([Cl])([Cl])([CH2]CCC)[CH2]CCC [Example 5, Dihydroxyethyl-benzyl-lauryl / Tributyldichloro]
- MIC against fungi, strain K (Aspergillus niger): 5 mg/L
- MIC against fungi, strain Q (Endomyces geotrichum): 5 mg/L
- MIC against bacteria, strain B (Pseudomonas aeruginosa): 100 mg/L
- Action against Artemia salina (Artemia salina; 0,5 mg/l, 6 hours): 1-2
- Action against Artemia salina (Artemia salina; 0,5 mg/l, 24 hours): 2-3
- Action against Artemia salina (Artemia salina; 0,5 mg/l, 48 hours): 3
- Action against Artemia salina (Artemia salina; 0,25 mg/l, 6 hours): 0-1
- Action against Artemia salina (Artemia salina; 0,25 mg/l, 24 hours): 2
- Action against Artemia salina (Artemia salina; 0,25 mg/l, 48 hours): 2-3
- Action against Artemia salina (Artemia salina; 1 mg/l, 6 hours): 2
- Action against Artemia salina (Artemia salina; 1 mg/l, 24 hours): 3
- Action against Artemia salina (Artemia salina; 1 mg/l, 48 hours): 3
- Action against Artemia salina (Artemia salina; 2,5 mg/l, 6 hours): 2-3
- Action against Artemia salina (Artemia salina; 2,5 mg/l, 24 hours): 3
- Action against Artemia salina (Artemia salina; 2,5 mg/l, 48 hours): 3
- MIC against bacteria, strain F (Bacillus subtilis): 100 mg/L
- Growth on the agar (algae-destroying action) (Chlorella vulgaris): --
- Growth in the medium (growth inhibition) (Chlorella vulgaris): --
- MIC against bacteria, strain A (Proteus vulgaris): 100 mg/L
- MIC against fungi, strain O [1]: 2 mg/L
- MIC against bacteria, strain E [2]: 100 mg/L
- MIC against fungi, strain S (Chaetomium globosum): 2 mg/L
- MIC against bacteria, strain C (Enterobacter aerogenes): 100 mg/L
- MIC against fungi, strain P (Candida albicans): 5 mg/L
- MIC against fungi, strain M (Penicillium funiculosum): 5 mg/L
- Growth (destruction of a mixed culture of bacteria) [3, 6]: +
- Growth (destruction of a mixed culture of bacteria) [3, 7]: +
- Growth (destruction of a mixed culture of bacteria) [3, 8]: +
- Growth (destruction of a mixed culture of bacteria) [3, 9]: +
- Growth (destruction of a mixed culture of bacteria) [3, 10]: +
- Growth (destruction of a mixed culture of bacteria) [3, 11]: +
- Growth (destruction of a mixed culture of bacteria) [3, 12]: +
- Growth (destruction of a mixed culture of bacteria) [3, 13]: +
- Growth (destruction of a mixed culture of bacteria) [3, 14]: +
- Growth (destruction of a mixed culture of bacteria) [3, 15]: (+) (growth less than that of control (>10 colonies), slight destruction)
- MIC against fungi, strain R (Aureobasidium pullulans): 2 mg/L
- MIC [4]: 0.5 mg/L
- MIC against fungi, strain N (Alternaria alternata): 5 mg/L
- MIC against fungi, strain L (Aspergillus phoenicis): 5 mg/L
- MIC against bacteria, strain D (Serratia marcencens): 100 mg/L
- Destruction, 5 mg/liter [5]: yes
